Test results from the NIST ThermoML archive (doi:10.1021/je400783h).
± gives the expanded uncertainty stated by the source.

Details: for surface tension liquid-gas: Drop volume; for viscosity / speed of sound / mass density / vapor or sublimation pressure: Liquid; for viscosity: Capillary tube (Ostwald / Ubbelohde) method; for speed of sound: Pulse-echo method; for vapor or sublimation pressure: Ebulliometric method (Recirculating still)

Cc1ccc(C=O)o1 [5-methylfurfural]
surface tension liquid-gas (278.15 K): 43.02 ± 0.3 mN/m
viscosity (278.15 K, 101.33 kPa): 3.164 ± 0.067 mPa·s
speed of sound (278.15 K, 101.33 kPa): 1521 ± 1.2 m/s
mass density (278.15 K, 101.33 kPa, Vibrating tube method): 1122.94 ± 0.34 kg/m3
surface tension liquid-gas (280.65 K): 42.75 ± 0.29 mN/m
viscosity (280.65 K, 101.33 kPa): 2.974 ± 0.063 mPa·s
speed of sound (280.65 K, 101.33 kPa): 1511.8 ± 1.2 m/s
mass density (280.65 K, 101.33 kPa, Vibrating tube method): 1120.49 ± 0.34 kg/m3
surface tension liquid-gas (283.15 K): 42.37 ± 0.29 mN/m
mass density (283.15 K, 100 kPa): 1118.02 ± 0.56 kg/m3
viscosity (283.15 K, 101.33 kPa): 2.764 ± 0.059 mPa·s
speed of sound (283.15 K, 101.33 kPa): 1502.5 ± 1.2 m/s
mass density (283.15 K, 101.33 kPa, Vibrating tube method): 1118.02 ± 0.34 kg/m3
mass density (283.15 K, 2500 kPa): 1119.83 ± 0.61 kg/m3
mass density (283.15 K, 5000 kPa): 1121.37 ± 0.66 kg/m3
mass density (283.15 K, 7500 kPa): 1122.65 ± 0.71 kg/m3
mass density (283.15 K, 10000 kPa): 1124.02 ± 0.76 kg/m3
mass density (283.15 K, 20000 kPa): 1129.41 ± 0.98 kg/m3
mass density (283.15 K, 30000 kPa): 1134.53 ± 1.2 kg/m3
mass density (283.15 K, 40000 kPa): 1139.44 ± 1.5 kg/m3
mass density (283.15 K, 50000 kPa): 1144.14 ± 1.7 kg/m3
mass density (283.15 K, 60000 kPa): 1148.58 ± 2 kg/m3
surface tension liquid-gas (285.65 K): 42.13 ± 0.29 mN/m
viscosity (285.65 K, 101.33 kPa): 2.628 ± 0.056 mPa·s
speed of sound (285.65 K, 101.33 kPa): 1493.2 ± 1.2 m/s
mass density (285.65 K, 101.33 kPa, Vibrating tube method): 1115.56 ± 0.34 kg/m3
surface tension liquid-gas (288.15 K): 41.8 ± 0.29 mN/m
mass density (288.15 K, 100 kPa): 1113.09 ± 0.55 kg/m3
viscosity (288.15 K, 101.33 kPa): 2.443 ± 0.052 mPa·s
speed of sound (288.15 K, 101.33 kPa): 1484 ± 1.2 m/s
mass density (288.15 K, 101.33 kPa, Vibrating tube method): 1113.09 ± 0.34 kg/m3
mass density (288.15 K, 2500 kPa): 1114.82 ± 0.6 kg/m3
mass density (288.15 K, 5000 kPa): 1116.39 ± 0.64 kg/m3
mass density (288.15 K, 7500 kPa): 1117.87 ± 0.69 kg/m3
mass density (288.15 K, 10000 kPa): 1119.23 ± 0.74 kg/m3
mass density (288.15 K, 20000 kPa): 1124.75 ± 0.96 kg/m3
mass density (288.15 K, 30000 kPa): 1129.99 ± 1.2 kg/m3
mass density (288.15 K, 40000 kPa): 1134.99 ± 1.4 kg/m3
mass density (288.15 K, 50000 kPa): 1139.79 ± 1.7 kg/m3
mass density (288.15 K, 60000 kPa): 1144.31 ± 1.9 kg/m3
surface tension liquid-gas (290.65 K): 41.46 ± 0.29 mN/m
viscosity (290.65 K, 101.33 kPa): 2.297 ± 0.049 mPa·s
speed of sound (290.65 K, 101.33 kPa): 1474.7 ± 1.2 m/s
mass density (290.65 K, 101.33 kPa, Vibrating tube method): 1110.62 ± 0.33 kg/m3
surface tension liquid-gas (293.15 K): 41.2 ± 0.29 mN/m
mass density (293.15 K, 100 kPa): 1108.15 ± 0.54 kg/m3
viscosity (293.15 K, 101.33 kPa): 2.175 ± 0.046 mPa·s
speed of sound (293.15 K, 101.33 kPa): 1465.5 ± 1.2 m/s
mass density (293.15 K, 101.33 kPa, Vibrating tube method): 1108.15 ± 0.33 kg/m3
mass density (293.15 K, 2500 kPa): 1110.03 ± 0.58 kg/m3
mass density (293.15 K, 5000 kPa): 1111.5 ± 0.63 kg/m3
mass density (293.15 K, 7500 kPa): 1112.96 ± 0.68 kg/m3
mass density (293.15 K, 10000 kPa): 1114.4 ± 0.73 kg/m3
mass density (293.15 K, 20000 kPa): 1120.15 ± 0.93 kg/m3
mass density (293.15 K, 30000 kPa): 1125.46 ± 1.1 kg/m3
mass density (293.15 K, 40000 kPa): 1130.57 ± 1.4 kg/m3
mass density (293.15 K, 50000 kPa): 1135.4 ± 1.6 kg/m3
mass density (293.15 K, 60000 kPa): 1140.08 ± 1.9 kg/m3
surface tension liquid-gas (295.65 K): 40.9 ± 0.29 mN/m
viscosity (295.65 K, 101.33 kPa): 2.056 ± 0.044 mPa·s
speed of sound (295.65 K, 101.33 kPa): 1456.3 ± 1.2 m/s
mass density (295.65 K, 101.33 kPa, Vibrating tube method): 1105.68 ± 0.33 kg/m3
surface tension liquid-gas (298.15 K): 40.61 ± 0.28 mN/m
mass density (298.15 K, 100 kPa): 1103.2 ± 0.53 kg/m3
viscosity (298.15 K, 101.33 kPa): 1.948 ± 0.041 mPa·s
speed of sound (298.15 K, 101.33 kPa): 1447 ± 1.2 m/s
mass density (298.15 K, 101.33 kPa, Vibrating tube method): 1103.2 ± 0.33 kg/m3
mass density (298.15 K, 2500 kPa): 1104.82 ± 0.57 kg/m3
mass density (298.15 K, 5000 kPa): 1106.62 ± 0.62 kg/m3
mass density (298.15 K, 7500 kPa): 1108.34 ± 0.66 kg/m3
mass density (298.15 K, 10000 kPa): 1109.63 ± 0.71 kg/m3
mass density (298.15 K, 20000 kPa): 1115.43 ± 0.91 kg/m3
mass density (298.15 K, 30000 kPa): 1120.97 ± 1.1 kg/m3
mass density (298.15 K, 40000 kPa): 1126.15 ± 1.4 kg/m3
mass density (298.15 K, 50000 kPa): 1131.12 ± 1.6 kg/m3
mass density (298.15 K, 60000 kPa): 1135.84 ± 1.9 kg/m3
surface tension liquid-gas (300.65 K): 40.22 ± 0.28 mN/m
viscosity (300.65 K, 101.33 kPa): 1.853 ± 0.039 mPa·s
speed of sound (300.65 K, 101.33 kPa): 1437.8 ± 1.2 m/s
mass density (300.65 K, 101.33 kPa, Vibrating tube method): 1100.73 ± 0.33 kg/m3
surface tension liquid-gas (303.15 K): 39.95 ± 0.28 mN/m
mass density (303.15 K, 100 kPa): 1098.25 ± 0.53 kg/m3
viscosity (303.15 K, 101.33 kPa): 1.757 ± 0.037 mPa·s
speed of sound (303.15 K, 101.33 kPa): 1428.7 ± 1.2 m/s
mass density (303.15 K, 101.33 kPa, Vibrating tube method): 1098.25 ± 0.32 kg/m3
mass density (303.15 K, 2500 kPa): 1100.71 ± 1 kg/m3
mass density (303.15 K, 5000 kPa): 1101.81 ± 0.6 kg/m3
mass density (303.15 K, 7500 kPa): 1103.11 ± 0.65 kg/m3
mass density (303.15 K, 10000 kPa): 1104.89 ± 0.69 kg/m3
mass density (303.15 K, 20000 kPa): 1110.81 ± 0.88 kg/m3
mass density (303.15 K, 30000 kPa): 1116.44 ± 1.1 kg/m3
mass density (303.15 K, 40000 kPa): 1121.72 ± 1.3 kg/m3
mass density (303.15 K, 50000 kPa): 1126.87 ± 1.6 kg/m3
mass density (303.15 K, 60000 kPa): 1131.66 ± 1.8 kg/m3
vapor or sublimation pressure (303.15 K): 0.1 ± 0.1 kPa
surface tension liquid-gas (305.65 K): 39.66 ± 0.28 mN/m
viscosity (305.65 K, 101.33 kPa): 1.674 ± 0.036 mPa·s
speed of sound (305.65 K, 101.33 kPa): 1419.6 ± 1.2 m/s
mass density (305.65 K, 101.33 kPa, Vibrating tube method): 1095.77 ± 0.32 kg/m3
surface tension liquid-gas (308.15 K): 39.32 ± 0.28 mN/m
mass density (308.15 K, 100 kPa): 1093.29 ± 0.51 kg/m3
viscosity (308.15 K, 101.33 kPa): 1.598 ± 0.034 mPa·s
speed of sound (308.15 K, 101.33 kPa): 1410.5 ± 1.2 m/s
mass density (308.15 K, 101.33 kPa, Vibrating tube method): 1093.29 ± 0.32 kg/m3
mass density (308.15 K, 2500 kPa): 1095.01 ± 0.55 kg/m3
mass density (308.15 K, 5000 kPa): 1096.9 ± 0.59 kg/m3
mass density (308.15 K, 7500 kPa): 1098.15 ± 0.63 kg/m3
mass density (308.15 K, 10000 kPa): 1100.06 ± 0.68 kg/m3
mass density (308.15 K, 20000 kPa): 1106.17 ± 0.86 kg/m3
mass density (308.15 K, 30000 kPa): 1111.86 ± 1.1 kg/m3
mass density (308.15 K, 40000 kPa): 1117.24 ± 1.3 kg/m3
mass density (308.15 K, 50000 kPa): 1122.38 ± 1.5 kg/m3
mass density (308.15 K, 60000 kPa): 1127.34 ± 1.8 kg/m3
vapor or sublimation pressure (308.15 K): 0.15 ± 0.1 kPa
surface tension liquid-gas (310.65 K): 39.04 ± 0.28 mN/m
viscosity (310.65 K, 101.33 kPa): 1.527 ± 0.033 mPa·s
speed of sound (310.65 K, 101.33 kPa): 1401.4 ± 1.2 m/s
mass density (310.65 K, 101.33 kPa, Vibrating tube method): 1090.8 ± 0.32 kg/m3
surface tension liquid-gas (313.15 K): 38.75 ± 0.27 mN/m
mass density (313.15 K, 100 kPa): 1088.32 ± 0.5 kg/m3
viscosity (313.15 K, 101.33 kPa): 1.461 ± 0.031 mPa·s
speed of sound (313.15 K, 101.33 kPa): 1392.3 ± 1.2 m/s
mass density (313.15 K, 101.33 kPa, Vibrating tube method): 1088.32 ± 0.32 kg/m3
mass density (313.15 K, 2500 kPa): 1090.31 ± 0.54 kg/m3
mass density (313.15 K, 5000 kPa): 1092.06 ± 0.58 kg/m3
